Measurements as given in publication PMC4965013, “Open Source Drug Discovery with the Malaria Box Compound Collection for Neglected Diseases and Beyond” (PLoS Pathogens, 2016).
Blank lines part the entries; values can stand above or below the molecule they belong to.

Legend:
[1] = system: P. falciparum 3D7 trophozoites; assay: Metabolomic fingerprint profiling LC-MS; assay type: cell-based, Plasmodium falciparum; parameters: UDP-D-glucose / ADP-D-glucose: unit not given here; settings: for Acetyllysine / N-acetyl-L-ornithine / N-carbamoyl-L-aspartate / NADPH / dAMP / dCMP / dTDP / dTMP / dTTP / dihydroorotate / orotate / DLH / DLS/SDL/SID / PD / PEE / PVNF / 3-phosphoglycerate / ADP-D-glucose / ATP / CDP / D-sedoheptulose-1/7-phosphate / FAD / GMP / NAD+ / NADP+ / Octoluse Bisphosphate / Pyroglutamic acid / UDP-D-glucose / UDP-D-glucuronate / UDP-N-acetyl-glucosamine / UDP / UMP / UTP / a-ketoglutarate / citrate/isocitrate / cytidine / dATP / dGMP/AMP / fumarate / glucose-1/6-phosphate / glycerate / guanine / guanosine / hypoxanthine / indole / inosine / nicotinate / ornithine / phosphoenolpyruvate / pyruvate / ribose-phosphate / sarcosine/alanine / sn-glycerol-3-phosphate / succinate/methylmalonic acid / uridine / xanthosine: S2 Table Metabolomics; for Acetyllysine: metabolite Acetyllysine; for N-acetyl-L-ornithine: metabolite N-acetyl-L-ornithine; for N-carbamoyl-L-aspartate: metabolite N-carbamoyl-L-aspartate; for NADPH: metabolite NADPH; for dAMP: metabolite dAMP; for dCMP: metabolite dCMP; for dTDP: metabolite dTDP; for dTMP: metabolite dTMP; for dTTP: metabolite dTTP; for dihydroorotate: metabolite dihydroorotate; for orotate: metabolite orotate; for DLH: peptide DLH; for DLS/SDL/SID: peptide DLS/SDL/SID; for PD: peptide PD; for PEE: peptide PEE; for PVNF: peptide PVNF; for 3-phosphoglycerate: metabolite 3-phosphoglycerate; for ADP-D-glucose: metabolite ADP-D-glucose; for ATP: metabolite ATP; for CDP: metabolite CDP; for CDP / D-sedoheptulose-1/7-phosphate / GMP / Octoluse Bisphosphate / UDP / UMP / UTP / citrate/isocitrate / dGMP/AMP / fumarate / glucose-1/6-phosphate / glycerate / guanine / guanosine / inosine / pyruvate / sarcosine/alanine / succinate/methylmalonic acid / uridine / xanthosine: change in metabolite level after compound treatment; for D-sedoheptulose-1/7-phosphate: metabolite D-sedoheptulose-1/7-phosphate; for FAD: metabolite FAD; for GMP: metabolite GMP; for NAD+: metabolite NAD+; for NADP+: metabolite NADP+; for Octoluse Bisphosphate: metabolite Octoluse Bisphosphate; for Pyroglutamic acid: metabolite Pyroglutamic acid; for UDP-D-glucose: metabolite UDP-D-glucose; for UDP-D-glucuronate: metabolite UDP-D-glucuronate; for UDP-N-acetyl-glucosamine: metabolite UDP-N-acetyl-glucosamine; for UDP: metabolite UDP; for UMP: metabolite UMP; for UTP: metabolite UTP; for a-ketoglutarate: metabolite a-ketoglutarate; for citrate/isocitrate: metabolite citrate/isocitrate; for cytidine: metabolite cytidine; for dATP: metabolite dATP; for dGMP/AMP: metabolite dGMP/AMP; for fumarate: metabolite fumarate; for glucose-1/6-phosphate: metabolite glucose-1/6-phosphate; for glycerate: metabolite glycerate; for guanine: metabolite guanine; for guanosine: metabolite guanosine; for hypoxanthine: metabolite hypoxanthine; for indole: metabolite indole; for inosine: metabolite inosine; for 2_3-Diphosphoglyceric acid / 4-phosphopantothenate / 6-phospho-D-gluconate / FMN / IMP / Pyrophosphate / Sedoheptoluse bisphosphate / cyclic-AMP / glutathione disulfide / lactate / myo-inositol: metabolite level change after treatment; for nicotinate: metabolite nicotinate; for ornithine: metabolite ornithine; for phosphoenolpyruvate: metabolite phosphoenolpyruvate; for pyruvate: metabolite pyruvate; for ribose-phosphate: metabolite ribose-phosphate; for sarcosine/alanine: metabolite sarcosine/alanine; for sn-glycerol-3-phosphate: metabolite sn-glycerol-3-phosphate; for succinate/methylmalonic acid: metabolite succinate/methylmalonic acid; for uridine: metabolite uridine; for xanthosine: metabolite xanthosine
P. falciparum = assay: EC50 listed in S2 Table Metabolomics (used to set the concentration tested); assay type: cell-based; settings: Plasmodium falciparum; EC50 used for Factor_XEC50 in metabolomics; read-out: EC50_nM

EC50 (P. falciparum): 106 nM
SMILES: CCCCCCOC(=O)C1=C(C)NC(=O)NC1c1ccccc1F (stereo not drawn) [MMV007686]
Acetyllysine [1]: -0.6021
N-acetyl-L-ornithine [1]: -0.5247
N-carbamoyl-L-aspartate [1]: -0.1545
NADPH [1]: -0.6448
dAMP [1]: -0.475
dCMP [1]: 0.2166
dTDP [1]: -0.8182
dTMP [1]: -0.71
dTTP [1]: -0.2978
dihydroorotate [1]: 0.04156
orotate [1]: 0.1913
DLH [1]: 0.3631
DLS/SDL/SID [1]: 0.06173
PD [1]: -0.2456
PEE [1]: -0.1279
PVNF [1]: 0.4591
3-phosphoglycerate [1]: 0.4561
ADP-D-glucose [1]: 0.08489
ATP [1]: -0.09097
CDP [1]: -1.124
D-sedoheptulose-1/7-phosphate [1]: -0.6707
FAD [1]: -0.2456
GMP [1]: 0.9608
NAD+ [1]: -0.04958
NADP+ [1]: -0.001559
Octoluse Bisphosphate [1]: -0.1324
Pyroglutamic acid [1]: 0.9271
UDP-D-glucose [1]: -0.1029
UDP-D-glucuronate [1]: -0.1902
UDP-N-acetyl-glucosamine [1]: -0.1743
UDP [1]: -1.121
UMP [1]: 0.7368
UTP [1]: -0.5193
a-ketoglutarate [1]: 0.8749
citrate/isocitrate [1]: 0.6672
cytidine [1]: 0.271
dATP [1]: -0.2157
dGMP/AMP [1]: -0.5696
fumarate [1]: 0.5304
glucose-1/6-phosphate [1]: -0.0799
glycerate [1]: 0.5979
guanine [1]: -0.1143
guanosine [1]: -0.2083
hypoxanthine [1]: 0.8142
indole [1]: 0.4434
inosine [1]: 0.6048
2_3-Diphosphoglyceric acid [1]: -0.3849
4-phosphopantothenate [1]: -0.1203
6-phospho-D-gluconate [1]: -0.2727
FMN [1]: -0.1451
IMP [1]: -0.1074
Pyrophosphate [1]: -0.313
Sedoheptoluse bisphosphate [1]: -0.1202
cyclic-AMP [1]: -0.174
glutathione disulfide [1]: -0.2538
lactate [1]: 0.3995
myo-inositol [1]: 0.04912
nicotinate [1]: 0.5888
ornithine [1]: 0.3712
phosphoenolpyruvate [1]: 0.6171
pyruvate [1]: 0.7724
ribose-phosphate [1]: 0.6092
sarcosine/alanine [1]: 0.1752
sn-glycerol-3-phosphate [1]: 0.5669
succinate/methylmalonic acid [1]: 0.1316
uridine [1]: 0.4569
xanthosine [1]: 0.7187

EC50 (P. falciparum): 92.8 nM
SMILES: Cc1ccc(-c2cc3c(SCC(=O)Nc4cc(C(F)(F)F)ccc4Cl)nccn3n2)cc1 [MMV396680]
Acetyllysine [1]: -0.4906
N-acetyl-L-ornithine [1]: -0.1465
N-carbamoyl-L-aspartate [1]: 2.456
NADPH [1]: 0.3651
dAMP [1]: -0.4552
dCMP [1]: -0.05341
dTDP [1]: -1.136
dTMP [1]: -1.083
dTTP [1]: -1.158
dihydroorotate [1]: 3.543
orotate [1]: -0.9159
DLH [1]: -0.3949
DLS/SDL/SID [1]: -0.337
PD [1]: -0.05706
PEE [1]: -0.2567
PVNF [1]: -0.5778
3-phosphoglycerate [1]: -0.2595
ADP-D-glucose [1]: -0.2217
ATP [1]: -0.3128
CDP [1]: -0.9741
D-sedoheptulose-1/7-phosphate [1]: -0.1867
FAD [1]: 0.01886
GMP [1]: 0.2283
NAD+ [1]: 0.1566
NADP+ [1]: -0.1345
Octoluse Bisphosphate [1]: -0.3002
Pyroglutamic acid [1]: -0.01833
UDP-D-glucose [1]: -0.08257
UDP-D-glucuronate [1]: -0.2581
UDP-N-acetyl-glucosamine [1]: -0.1134
UDP [1]: -1.014
UMP [1]: -0.7737
UTP [1]: -1.292
a-ketoglutarate [1]: -0.4564
citrate/isocitrate [1]: -0.8044
cytidine [1]: 0.4371
dATP [1]: 0.3628
dGMP/AMP [1]: -1.368
fumarate [1]: -0.8765
glucose-1/6-phosphate [1]: 0.09137
glycerate [1]: -0.2491
guanine [1]: 0.04089
guanosine [1]: -0.01605
hypoxanthine [1]: -0.1601
indole [1]: -0.003888
inosine [1]: -0.03937
2_3-Diphosphoglyceric acid [1]: -0.2285
4-phosphopantothenate [1]: -0.2363
6-phospho-D-gluconate [1]: 0
FMN [1]: -0.1967
IMP [1]: -0.1897
Pyrophosphate [1]: 0.5607
Sedoheptoluse bisphosphate [1]: -0.2656
cyclic-AMP [1]: -0.07723
glutathione disulfide [1]: -0.04075
lactate [1]: -0.4254
myo-inositol [1]: -0.7104
nicotinate [1]: -0.4764
ornithine [1]: -0.2162
phosphoenolpyruvate [1]: -0.2321
pyruvate [1]: -0.2774
ribose-phosphate [1]: -0.04672
sarcosine/alanine [1]: -0.2257
sn-glycerol-3-phosphate [1]: -0.3003
succinate/methylmalonic acid [1]: 0.02717
uridine [1]: -0.7719
xanthosine [1]: -0.1274

EC50 (P. falciparum): 154 nM
SMILES: CCOC(=O)C1=C(c2ccccc2)N=c2sc(=Cc3cc(C)n(-c4ccc(F)cc4)c3C)c(=O)n2C1c1cccc(OC)c1OC (stereo not drawn) [MMV666601]
Acetyllysine [1]: -0.456
N-acetyl-L-ornithine [1]: -0.1781
N-carbamoyl-L-aspartate [1]: 0.03088
NADPH [1]: 0.275
dAMP [1]: -0.2186
dCMP [1]: 0.01598
dTDP [1]: -0.2912
dTMP [1]: -0.2825
dTTP [1]: -0.02615
dihydroorotate [1]: 0.05127
orotate [1]: -0.2921
DLH [1]: -0.04885
DLS/SDL/SID [1]: -0.07047
PD [1]: -0.02012
PEE [1]: -0.1327
PVNF [1]: -0.1227
3-phosphoglycerate [1]: 0.04151
ADP-D-glucose [1]: -0.1367
ATP [1]: 0.1113
CDP [1]: -0.2732
D-sedoheptulose-1/7-phosphate [1]: -0.3701
FAD [1]: 0.009316
GMP [1]: 0.1751
NAD+ [1]: 0.04978
NADP+ [1]: -0.07076
Octoluse Bisphosphate [1]: -0.0546
Pyroglutamic acid [1]: 0.2145
UDP-D-glucose [1]: -0.01836
UDP-D-glucuronate [1]: -0.09865
UDP-N-acetyl-glucosamine [1]: -0.01529
UDP [1]: -0.3315
UMP [1]: 0.1049
UTP [1]: 0.1938
a-ketoglutarate [1]: 0.0362
citrate/isocitrate [1]: 0.4989
cytidine [1]: 0.1663
dATP [1]: 0.2724
dGMP/AMP [1]: -0.3927
fumarate [1]: -0.02339
glucose-1/6-phosphate [1]: -0.02704
glycerate [1]: 0.006669
guanine [1]: -0.1817
guanosine [1]: -0.06753
hypoxanthine [1]: 0.09643
indole [1]: 0.007804
inosine [1]: 0
2_3-Diphosphoglyceric acid [1]: -0.2012
4-phosphopantothenate [1]: -0.1061
6-phospho-D-gluconate [1]: 0.004224
FMN [1]: -0.01347
IMP [1]: -0.1927
Pyrophosphate [1]: -0.04369
Sedoheptoluse bisphosphate [1]: -0.08738
cyclic-AMP [1]: 0.1818
glutathione disulfide [1]: -0.01346
lactate [1]: -0.02544
myo-inositol [1]: -0.1142
nicotinate [1]: 0.07511
ornithine [1]: -0.266
phosphoenolpyruvate [1]: -0.02402
pyruvate [1]: -0.028
ribose-phosphate [1]: 0.1121
sarcosine/alanine [1]: -0.3168
sn-glycerol-3-phosphate [1]: -0.06233
succinate/methylmalonic acid [1]: 0.1961
uridine [1]: -0.1775
xanthosine [1]: 0.2404
